# Patent US20100029654A1, “CARDIOVASCULAR COMPOSITIONS AND USE OF THE SAME FOR THE TREATMENT OF ALZHEIMER'S DISEASE” (MOUNT SINAI SCHOOL OF MEDICINE, priority 2006, published 2010)
# “Also recorded” adds a separate entry of the source. Where two headings read alike, the source gives them in different places.
# Columns and labels:
# [1] = tested on: Aβ1-40; test: Aβ1-40 content in conditioned medium of primary cortico-hippocampal neuron cultures from Tg2576 mice (ELISA; primary and secondary dose-response screening); type: cell-based, mouse; settings: for Ab1-40 (% of ctl): drug 100 μM
# In short: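 Primary cortico-hippocampal neurons from embryonic Tg2576 mice were plated at 1.0×10^5 cells per well on poly-D-lysine-coated 96-well plates in Neurobasal with 2% B27, 0.5 mM L-glutamine and 1% penicillin-streptomycin. Cultures received drug in 1% DMSO, and Aβ1-40 in the conditioned medium was measured by BioSource ELISA 24 hours after treatment, relative to vehicle controls.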
# [2] = tested on: Aβ1-42; test: Aβ1-42 content in conditioned medium of primary cortico-hippocampal neuron cultures from Tg2576 mice (ELISA; primary and secondary dose-response screening); type: cell-based, mouse; settings: for Ab1-42 (% of ctl): drug 100 μM
# In short: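 Primary cortico-hippocampal neurons from embryonic Tg2576 mouse brain were seeded on poly-D-lysine-coated 96-well plates at 1.0×10^5 cells per well in serum-free Neurobasal medium with 2% B27, 0.5 mM L-glutamine and 1% penicillin-streptomycin. For primary screening, duplicate wells received 100 μM drug (1% DMSO final). Vehicle-treated cultures served as controls, and Aβ1-42 in conditioned medium was measured by commercial ELISA.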
# [3] = target: T1, Aβ1-42 peptide (Homo sapiens, UniProt P05067); test: Aβ-peptide oligomerization assay in vitro (Western blot, A11 dot blot); type: biochemical
# T1 construct: Lyophilized Aβ1-42 peptide was dissolved
# T1 sequence (P05067 672-713 limits assumed): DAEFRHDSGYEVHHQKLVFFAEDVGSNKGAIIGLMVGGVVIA
# Description: Aβ-peptideoligomerization assay in vitro: Lyophilized Aβ1-42 peptide was dissolved in 1,1,1,3,3,3,-hexafluoro-2-propanol (HFIP, from Sigma), incubated at room temperature for 60 min, aliquoted, vacuum dried and stored at −80° C. Aβ peptide was dissolved in DMSO and diluted into ddH2O to a final concentration of 100 μg/ml. The peptide was then mixed with equal volume of drugs and incubated at 37° C. for 1 day (Klein, W. L. 2002. Neurochemistry International 41:345-352).
# Following incubation, samples were centrifuged at 14,000×g for 10 min at 4° C. Supernatants were mixed with 2× SDS sample buffer and separated on a 10-20% Tris-Tricine gradient SDS gel (Invitrogen). The separated peptides were subjected to Western blot using 6E10 antibody (1:1000, Signet, St. Louis). Immunoreactive signals were visualized by using enhanced chemiluminescence detection (Amersham), and quantified densitometrically (Quantity One, Bio-Rad).
# Immunoreactive signals were detected and quantified as described above.
# [4] = tested on: Tg2576 mice; test: Morris water maze test of spatial memory; type: in vivo, mouse
# Excerpt: In the MWM assay, experimental animals are placed into a circular water tank and provided with a submerged “escape platform” at a specific location. Appropriate visual cues are located on a wall surrounding the water tank. Through repeated “learning trials”, normal animals typically learn to use the visual cues for spatial navigation and eventually require less time to swim to the platform as reflected by reducing escape latency.
# Behavioral assessment of cognitive function by the Morris water maze test. […] At ˜11 months of age, mice were put into the water maze from 4 different quadrants; spatial memory was assessed by recording the average latency time for the animal to escape to the hidden platform. The behavior analysis was consistently conducted during the last 4 hours of the day portion of the light cycle in an environment with minimal stimuli (e.g., noise, movement, or changes in light or temperature).
# [5] = tested on: Tg2576 mice; test: blood pressure (systolic, diastolic, MAP) by tail-cuff; type: in vivo, mouse
# Description: FIG. 1 Tg2576 mice are characterized by normal blood pressure under basal conditions. Baseline measurements of systolic, diastolic blood pressure, and mean arteriole blood pressure (MAP) in ˜11 month old female Tg2576 mice. Strain-, age-, gender-matched WT mice were measured using a commercial blood pressure analysis system designed specifically for small rodents (Hatteras Instruments, NC). Following manufacturer's instruction, mice were temporarily immobilized in a restraining chamber and an inflated tail-cuff wrapped around the tail was used to measure the systolic pressure, diastolic pressure, and MAP. Each blood pressure determination was calculated as the mean of 10 individual measurements per animal (n=6-10 group).
# FIG. 6A-C show body weight of mice in response to ˜3 weeks of treatment. […] FIG. 6D-F show the assessment of systolic, diastolic, and MAP blood pressure in Tg2576 mice in response to drug doses below or within the range of those prescribed in hypertension. Blood pressure measurements were conducted using a commercial blood pressure analysis system designed specifically for small rodents (Hatteras Instruments, NC). Following manufacturer's instruction, mice were temporarily immobilized in a restraining chamber and an inflated tail-cuff wrapped around the tail was used to measure pressures. Each blood pressure determination was calculated as the mean of 10 individual measurements per animal. In A-F, values represent mean±SEM values, n=3-5 mice per group. 2-tailed t-test: *P<0.05.
# Assessment of blood pressure and glucose utilization. Mouse blood pressure was routinely recorded using a commercial blood pressure analysis system designed specifically for small rodents (Hatteras Instruments, NC). […] Briefly, mice were given a single dose of glucose post-prandially (i.p. 2 g/kg body weight). Blood was collected from the tail-vein periodically over a 2-hour period. Blood glycemic content was assessed using the OneTouch LifeScan System, (LifeScan, Milpitas, Calif.) following the manufacturer's instruction.
# [6] = tested on: primary cortico-hippocampal neuron cultures; test: MTT in primary screening
# [7] = tested on: α-secretase; design: dose or concentration left out as unconfirmed; settings: primary Tg2576 neuron cultures, 16 hours
# [8] = tested on: γ-secretase; design: dose or concentration left out as unconfirmed; settings: primary Tg2576 neuron cultures, 16 hours
# [9] = tested on: Tg2576 mice; test: tolerability: body weight, fluid consumption, glucose tolerance
# [10] = tested on: primary cortico-hippocampal neuron cultures; test: lactate dehydrogenase (LDH) activity assay in parallel neuron cultures
# Description: For in vitro treatments drugs available from “The Spectrum Collection” in stocks of 10 mM in DMSO were applied directly to cultures to the desired concentrations (final 1% DMSO); control primary neuron cultures from Tg2576 embryos were treated with vehicle resulting in a final 1% DMSO.
# Cell viability was assessed using a commercial available LDH assay kit according to the manufacture's instruction (Promega).
# [11] = Primary Screening, table sorted by Aβ1-40
# [12] = primary screening, Tg2576 neuron cultures, table sorted by Aβ1-42
# [13] = primary screening, table sorted by Aβ1-42
# [14] = valsartan 10 or 40 mg/kg/day in drinking water, chronic
substance,measurement,setting,value
"N-(1-oxopentyl)-N-[[2-(1H-tetrazol-5-yl) [1,1-biphenyl]-4-yl]methyl]-L-valine [Valsartan]",Ab1-40 (% of ctl),[1]; [11],51.6 % of ctl
same,EC50,"[1]; Table IV, dose-response 0.01-100 μM, read-out: EC50 (M): Ab-lowering activity Abeta1-40",1.44e-05 M
same,EC50,"[1]; conditioned medium of primary cortico-hippocampal neuron cultures from Tg2576 embryos, 24 hours after treatment, relative to vehicle (1% DMSO) control, read-out: EC50 (molar) Aβ1-40",1.44e-05 M
same,reduced Aβ1-40,"[1]; primary screening, <85% of ctl",reduced Aβ1-40
same,Ab1-40 (% of ctl),[1]; [12],51.6 % of ctl
same,EC50,"[1]; secondary dose-response screening 0.01-100 μM, 24 hours, read-out: EC50 (molar) Aβ1-40",1.44e-05 M
same,Ab1-42 (% of ctl),[2]; [11],42.0 % of ctl
same,reducing Aβ1-42,"[2]; primary screening, <85% of ctl",useful in reducing Aβ1-42
same,Ab1-42 (% of ctl),[2]; [12],42.0 % of ctl
same,in vitro anti-Aβ oligomerization activity compared with other Aβ-lowering antihypertensives,[3],qualitatively stronger in vitro anti-Aβ oligomerization activity
same,Aβ1-42 oligomerization (A11 dot-blot),"[3]; 24 hours after incubation, vs vehicle",prevented Aβ1-42 oligomerization
same,prevention of oligomerization of Aβ1-42 (and Aβ1-40) into >40 kDa HMW species (Western Blot),"[3]; valsartan 10 μM, vs vehicle",> 5 fold
same,escape latency in Morris water maze,"[4]; Tg2576 mice, valsartan 10 and 40 mg/kg/day vs untreated",significant improvement in escape latency; also recorded: significantly reduced escape latency; also recorded: performed significantly better than untreated mice
same,spatial memory performance in Morris water maze,"[4]; WT mice, valsartan 10 or 40 mg/kg/day",did not significantly influence spatial memory performance; also recorded: failed to influence spatial reference memory performance
same,"systolic, diastolic, MAP blood pressure","[5]; WT mice, valsartan","no detectable changes in systolic, diastolic, or MAP"
same,"systolic, diastolic, MAP blood pressure","[5]; normotensive Tg2576 mice, valsartan 10 or 40 mg/kg/day, chronic","did not significantly influence systolic, diastolic, or MAP; also recorded: did not influence systolic, diastolic, and MAP blood pressure; also recorded: failed to produce a statistically significant change"
same,MTT (% of ctl),[6]; [11],67.4 % of ctl
same,MTT (% of ctl),[6]; [13],67.4 % of ctl
same,α-secretase activity,[7],no detectable change
same,γ-secretase activity,[8],no detectable change
same,body weight,[9]; [14],no detectable changes in body weight; also recorded: did not significantly influence animal body weight
same,fluid intake,[9]; [14],did not significantly influence the amount of fluid intake
same,glucose-tolerance responses,"[9]; valsartan 10 or 40 mg/kg/day, ~5 months",did not significantly influence
same,LDH (% of ctl),[10]; [11],94.1 % of ctl
same,LDH (at 5F-5 M),[10]; Table IV,no change
same,LDH at E-5M % of change,[10]; drug at E-5M,13.0%
same,LDH (% of ctl),[10]; [13],94.1 % of ctl
